{"source": "patent US5698567A", "about": "“Heterocyclic spiro compounds” (Adir Et Compagnie, priority 1995, dated 1997)", "key": {"5-lipoxygenase [1]": {"test_system": "5-lipoxygenase", "test": "Inhibition of the synthesis of LTB4 by the peritoneal PMN of rats in vitro (5-lipoxygenase-inhibiting activity)", "assay_type": "cell-based, rat", "conditions": "rat peritoneal PMN, A23187 10^-6 M", "text": "1.1 Determination of 5-1ipoxygenase-inhibiting activity in vitro (see Goldyne M. E., Burrish G. F., Poubelle P. and Borgeat P., Arachidonic Acid Metabolism among human mononuclear leukocytes. The Journal of Biological Chemistry. Vol. 259, N° 4, p. 8815-8819, 1984, and New Chang C. and Gin Wensu. Stimulation of 5-Lipoxygenase Activity in Polymorphonuclear Leukocytes of Rats by Caseinate Treatment. Biochemical Pharmacology. Vol. 36, N° 8, p. 3033-3036, 1987).\n(§1) 5-Lipoxygenase-inhibiting activity was determined on peritoneal leukocytes of rats. Leukocytosis is induced in male OFA rats (IFFA CREDO) weighing 200-250 g by the intraperitoneal injection of 12% sodium caseinate. 18 hours later, the cells are collected by washing the abdominal cavity. The number of cells is adjusted to 2×10^6 /ml.\n(§2) The cell suspension is incubated for 10 minutes at 37° C. in the presence of Ca^2+ 5×10^-4 M and Mg^2+ 2×10^-3 M and of various concentrations of the test products. The cells are then stimulated with the calcium ionophore A23187 at a concentration of 10^-6 M for 5 minutes at 37° C. Controls are carded out by incubating the cells with the solvent for the products: 2% DMSO.\nAfter stopping the reaction at +4° C. and centrifugation, the quantity of LTB4 in ng/2×10^6 cells in the supernatants is determined by the E.I.A. method (Statlergenes France). The percentage inhibition is calculated as follows: [formula]\n(§3) Metabolism of arachidonic acid by the peritoneal PMN of rats stimulated\n(§4) for 5 minutes in vitro by the calcium ionophore (A23187): 10^-6 M.\n(§5) Incubation of the products with the cells for 10 minutes prior to\n(§6) stimulation with the ionophore."}, "[2]": {"test_system": "synthesis of PGE2 by the peritoneal PMN of rats", "test": "Inhibition of the synthesis of PGE2 by the peritoneal PMN of rats in vitro", "assay_type": "cell-based, rat", "conditions": "A23187; for inhibition at 100 µM: 10^-4 M; for inhibition at 100 µM / inhibition at 10 µM: rat peritoneal PMN; for inhibition at 10 µM: 10^-5 M; for IC50: rat peritoneal PMN in vitro", "experimental": "as §1, §2, §3, §4, §5, §6"}, "5-lipoxygenase [3]": {"test_system": "5-lipoxygenase", "test": "Inhibition of the synthesis of LTB4 in total blood of rats ex vivo (5-lipoxygenase-inhibiting activity)", "design": "species or system rat", "conditions": "60 μmol/kg p.o., 1 h; A23187 5 × 10^-5 M, n = 8", "experimental": "1.2 Determination of 5-lipoxygenase-inhibiting activity ex vivo (see Brideau C., Chan C., Charleson S., Denis D. et al. Pharmacology of MK-0591 (3-[1-(4-chlorobenzyl)-3-(t-butyl-thio)-5(quinolin-2-yl-methoxy)-indol-2-yl]-2,2-dimethyl propanoic acid), a Potent, Orally Active Leukotriene Biosynthesis Inhibitor. Can. J. Physiol. Pharmacol. Vol. 70, p. 799-807, 1992).\nInhibition of the biosynthesis of leukotrienes ex vivo following oral administration of the compounds was determined by studying the production of leukotrienes on total blood of rats stimulated in vitro by the calcium ionophore at time 1 hour after oral administration of the compounds.\nThe various products are administered in suspension in hydroxyethylcellulose: 0.5% H.E.C. at a dose of 60 μmol/kg. Each product is studied on a group of 8 different animals. A control group receives 0.5% H.E.C. only. After intracardial removal of the blood from each rat (male Sprague Dawley rats weighing 150-200 g IFFA CREDO), 1 ml of heparinised blood is incubated with the calcium ionophore A23 187 at a concentration of 5×10^-5 M for 10 minutes at 37° C. The blood is then centrifuged immediately and 100 μl of plasma are extracted in 400 μl of methanol. After centrifugation, the supernatant is evaporated to dryness under N2, the dry residue is taken up in buffer solution, and the LTB4 is assayed by the E.I.A. method (Stallergenes France).\nThe percentage inhibition is expressed as follows: [formula] 2/Results\nAverage relative to all controls n = 31\nProducts administered p.o. 1 hour before removal of blood n = 8\nTotal blood of rats stimulated for 10 minutes in vitro by the calcium"}}, "note": "Structures can show the parent of a compound that is named as a salt.", "data": [{"compound": "O=C1NCC2(CCN(CC(c3ccccc3)c3ccc(OCc4ccc5ccccc5n4)cc3)CC2)O1", "note": "(racemic) [Example 6, (R,S)-8-{2-phenyl-2-[4-(quinol-2-ylmethoxy)phenyl]ethyl}-3,8-diaza-1-oxa-2-oxospiro[4,5]decane]", "values": [{"measurement": "LTB4 % Inhibition", "setting": "5-lipoxygenase [1]; 4.10^-8 M", "value": 60, "unit": "%"}, {"measurement": "LTB4 % Inhibition", "setting": "5-lipoxygenase [1]; 10^-6 M", "value": 100, "unit": "%"}, {"measurement": "LTB4 % Inhibition", "setting": "5-lipoxygenase [1]; 10^-7 M", "value": 93, "unit": "%"}, {"measurement": "LTB4 % Inhibition", "setting": "5-lipoxygenase [1]; 10^-8 M", "value": 21, "unit": "%"}, {"measurement": "inhibition at 100 µM", "setting": "[2]", "value": 88, "unit": "%"}, {"measurement": "inhibition at 10 µM", "setting": "[2]", "value": 3, "unit": "%"}, {"measurement": "% Inhibition of the synthesis of LTB4 in total blood of rats ex vivo", "setting": "5-lipoxygenase [3]", "value": 64, "unit": "%"}]}, {"compound": "O=C1NCC2(CCN(C(c3ccc(Cl)cc3)c3ccc(OCc4ccc5ccccc5n4)cc3)CC2)O1", "note": "(racemic) [Example 22, (R,S)-8-{(4-chlorophenyl)-[4-(quinol-2-ylmethoxy)phenyl]methyl}-3,8-diaza-1-oxa-2-oxospiro[4,5]decane dihydrochloride]", "values": [{"measurement": "LTB4 % Inhibition", "setting": "5-lipoxygenase [1]; 4.10^-8 M", "value": 76, "unit": "%"}, {"measurement": "LTB4 % Inhibition", "setting": "5-lipoxygenase [1]; 10^-6 M", "value": 100, "unit": "%"}, {"measurement": "LTB4 % Inhibition", "setting": "5-lipoxygenase [1]; 10^-7 M", "value": 97, "unit": "%"}, {"measurement": "LTB4 % Inhibition", "setting": "5-lipoxygenase [1]; 10^-8 M", "value": 18, "unit": "%"}, {"measurement": "inhibition at 100 µM", "setting": "[2]", "value": 4, "unit": "%"}, {"measurement": "inhibition at 10 µM", "setting": "[2]", "value": 6, "unit": "%"}, {"measurement": "IC50", "setting": "[2]", "value": "> 100", "unit": "µM"}, {"measurement": "% Inhibition of the synthesis of LTB4 in total blood of rats ex vivo", "setting": "5-lipoxygenase [3]", "value": 17, "unit": "%"}]}, {"compound": "O=C1NCC2(CCN(CC(Cc3ccc(Cl)cc3)c3ccc(OCc4ccc5ccccc5n4)cc3)CC2)O1", "note": "(racemic) [Example 34, (R,S)-8-{3-(4-chlorophenyl)-2-[4-(quinol-2-ylmethoxy)phenyl]propyl}-3,8-diaza-1-oxa-2-oxospiro[4,5]decane hydrochloride]", "values": [{"measurement": "LTB4 % Inhibition", "setting": "5-lipoxygenase [1]; 4.10^-8 M", "value": 56, "unit": "%"}, {"measurement": "LTB4 % Inhibition", "setting": "5-lipoxygenase [1]; 10^-6 M", "value": 100, "unit": "%"}, {"measurement": "LTB4 % Inhibition", "setting": "5-lipoxygenase [1]; 10^-7 M", "value": 72, "unit": "%"}, {"measurement": "LTB4 % Inhibition", "setting": "5-lipoxygenase [1]; 10^-8 M", "value": 12, "unit": "%"}, {"measurement": "inhibition at 100 µM", "setting": "[2]", "value": 6, "unit": "%"}, {"measurement": "inhibition at 10 µM", "setting": "[2]", "value": 2, "unit": "%"}, {"measurement": "IC50", "setting": "[2]", "value": "> 100", "unit": "µM"}, {"measurement": "% Inhibition of the synthesis of LTB4 in total blood of rats ex vivo", "setting": "5-lipoxygenase [3]", "value": 58, "unit": "%"}]}, {"compound": "O=C1NCC2(CCN(C(c3ccccc3)c3ccc(OCc4ccc5ccccc5n4)cc3)CC2)O1", "note": "(racemic) [Example 24, (R,S)-8-{phenyl-[4-(quinol-2-ylmethoxy)phenyl]methyl}-3,8-diaza-1-oxa-2-oxospiro[4,5]decane]", "values": [{"measurement": "LTB4 % Inhibition", "setting": "5-lipoxygenase [1]; 4.10^-8 M", "value": 56, "unit": "%"}, {"measurement": "LTB4 % Inhibition", "setting": "5-lipoxygenase [1]; 10^-7 M", "value": 100, "unit": "%"}, {"measurement": "inhibition at 100 µM", "setting": "[2]", "value": 44, "unit": "%"}, {"measurement": "inhibition at 10 µM", "setting": "[2]", "value": 19, "unit": "%"}, {"measurement": "IC50", "setting": "[2]", "value": "> 100", "unit": "µM"}, {"measurement": "% Inhibition of the synthesis of LTB4 in total blood of rats ex vivo", "setting": "5-lipoxygenase [3]", "value": 41, "unit": "%"}]}, {"compound": "O=C1NCC2(CCN(CC(CCc3ccccc3)c3ccc(OCc4ccc5ccccc5n4)cc3)CC2)O1", "note": "(racemic) [Example 33, (R,S)-8-{4-phenyl-2-[4-(quinol-2-ylmethoxy)phenyl]butyl}-3,8-diaza-1-oxa-2-oxospiro[4,5]decane]", "values": [{"measurement": "LTB4 % Inhibition", "setting": "5-lipoxygenase [1]; 4.10^-8 M", "value": 54, "unit": "%"}, {"measurement": "LTB4 % Inhibition", "setting": "5-lipoxygenase [1]; 10^-7 M", "value": 86, "unit": "%"}, {"measurement": "LTB4 % Inhibition", "setting": "5-lipoxygenase [1]; 10^-8 M", "value": 6, "unit": "%"}, {"measurement": "inhibition at 100 µM", "setting": "[2]", "value": 94, "unit": "%"}, {"measurement": "inhibition at 10 µM", "setting": "[2]", "value": 7, "unit": "%"}, {"measurement": "% Inhibition of the synthesis of LTB4 in total blood of rats ex vivo", "setting": "5-lipoxygenase [3]", "value": 48, "unit": "%"}]}, {"compound": "O=C1NCC2(CCN(CC(Cc3ccccc3)c3ccc(OCc4ccc5ccccc5n4)cc3)CC2)O1", "note": "(racemic) [Example 32, (R,S)-8-{3-phenyl-2-[4-(quinol-2-ylmethoxy)phenyl]propyl}-3,8-diaza-1-oxa-2-oxospiro[4,5]decane]", "values": [{"measurement": "LTB4 % Inhibition", "setting": "5-lipoxygenase [1]; 4.10^-8 M", "value": 24, "unit": "%"}, {"measurement": "LTB4 % Inhibition", "setting": "5-lipoxygenase [1]; 10^-6 M", "value": 100, "unit": "%"}, {"measurement": "LTB4 % Inhibition", "setting": "5-lipoxygenase [1]; 10^-7 M", "value": 78, "unit": "%"}, {"measurement": "inhibition at 100 µM", "setting": "[2]", "value": 92, "unit": "%"}, {"measurement": "% Inhibition of the synthesis of LTB4 in total blood of rats ex vivo", "setting": "5-lipoxygenase [3]", "value": 55, "unit": "%"}]}, {"compound": "O=C1NCC2(CCN(CC(c3ccc(Cl)cc3)c3ccc(OCc4ccc5ccccc5n4)cc3)CC2)O1", "note": "(racemic) [Example 8, (R,S)-8-{2-(4-chlorophenyl)-2-[4-(quinol-2-ylmethoxy)phenyl]ethyl}-3,8-diaza-1-oxa-2-oxospiro[4,5]decane dihydrochloride]", "values": [{"measurement": "LTB4 % Inhibition", "setting": "5-lipoxygenase [1]; 4.10^-8 M", "value": 85, "unit": "%"}, {"measurement": "LTB4 % Inhibition", "setting": "5-lipoxygenase [1]; 10^-6 M", "value": 100, "unit": "%"}, {"measurement": "LTB4 % Inhibition", "setting": "5-lipoxygenase [1]; 10^-7 M", "value": 100, "unit": "%"}, {"measurement": "LTB4 % Inhibition", "setting": "5-lipoxygenase [1]; 10^-8 M", "value": 22, "unit": "%"}, {"measurement": "inhibition at 100 µM", "setting": "[2]", "value": 72, "unit": "%"}, {"measurement": "inhibition at 10 µM", "setting": "[2]", "value": 32, "unit": "%"}, {"measurement": "% Inhibition of the synthesis of LTB4 in total blood of rats ex vivo", "setting": "5-lipoxygenase [3]", "value": 46, "unit": "%"}]}]}
